According to PMC5321753, “Enhanced expression of ADCY1 underlies aberrant neuronal signalling and behaviour in a syndromic autism model” (Nature Communications, 2017):

How the values were obtained:
mice [1] = experiment: NB001 toxicology study (body weight, organ weight, histology); format: in vivo, mouse
Protocol: (§1) Mice at 3 months (+/−10 days) of age were IP injected with NB001 twice daily at 50 mg kg^−1 for 2 weeks. Clinical observations were performed twice daily and body weights were measured on various days during the dosing regimen. At the end of the dosing period, mice were killed and blood was collected for clinical pathology (Diagnostic Center for Population and Animal Health, Michigan State University). The liver and kidney were collected and fixed in 10% buffered formalin (INVIVO facility at Michigan State University).

mice [2] = experiment: Clinical panel blood test after 14 days of NB001; format: in vivo, mouse
Protocol: as §1

Akt = experiment: Immunoblot of phosphorylated and total Akt in hippocampus after i.p. injection; format: in vivo, mouse; conditions: acute NB001 1 mg kg^-1 IP, 1 h after injection
Protocol: Hippocampal tissues were collected from 3-month-(+/−10 days) old mice. […] The primers used for Adcy1 were […] (forward) and […] (reverse). The protein levels in hippocampal tissues collected from mice were determined by western blot using anti-ADCY1 (Sigma, Cat # SAB4500146-100UG, 1:1,000 dilution), anti-p-ERK1/2 (Cell Signaling, Cat # 9101L, 1:1,000 dilution), anti-pAkt (Cell Signaling, Cat # 9271, 1:1,000 dilution), anti-pS6K1 (Cell Signaling, Cat # 9204L for the detection of phosphorylation at Thr421/Ser424, Cat # 9234S for the detection of phosphorylation at Thr389, 1:1,000 dilution), anti-ERK1/2 (Cell Signaling, Cat # 9102L, 1:1,000 dilution), anti-Akt (Cell Signaling, Cat # 9272S, 1:1,000 dilution), anti-S6K1 (Cell Signaling, Cat # 9202L, 1:1,000 dilution) and anti-β-actin antibody (Sigma, Cat # A5441; 1:5,000 dilution). Following incubations with infrared fluorescence (IRDye)-conjugated secondary antibodies (1:5,000, LI-COR Biosciences, Cat # 926–32211 and 926–68070), signals were detected using the Odyssey system (LI-COR Biosciences). The un-cropped western blots are shown in Supplementary Fig. 10.
(§2) NB001 was dissolved in water to give a 25 mM stock solution. The stock was diluted in saline and IP injected into mice at 1 mg kg^−1 body weight. In all cases, the drug was administered 1 h before testing. Control mice were treated similarly but injected with saline.

[3] = Mouse liver microsome stability assay; format: in vitro ADME; conditions: incubation with liver microsomes, 0-60 min
Protocol: Following IP injection of NB001 (20 mg kg^−1), mice were killed at various time points, and 0.5–0.8 ml of blood was drawn from a cardiac puncture into a 1 ml syringe, which was pre-treated with NaHeparin. The blood was collected into 1.5 ml microfuge tubes coated with NaHeparin and put on ice immediately. Samples were centrifuged at 15,000 r.p.m. for 15 min. Blood plasma was collected from the upper layer, leaving the blood cells in the tube. The plasma was frozen at −80 °C for later analysis. Brains were taken out and weighed immediately. Brains were frozen at −80 °C for later preparation and analysis. The samples were subjected to LC/MS/MS with Turbo-Ionspray Interface used in the positive ion-mode (Pharmacokinetics Core, University of Michigan). Mouse liver microsome stability assay was performed by the Pharmacokinetics Core at University of Michigan.

WT and Fmr1 KO mice = experiment: 3-chamber social interaction test; format: in vivo, mouse; conditions: NB001 1 mg kg^-1 IP, 1 h before testing; relative to WT level
Protocol: Social interaction was determined by the 3-chamber test as described. Mouse at 3 months (+/−10 days) of age was placed in a 3-chamber social interaction box and allowed to explore freely for 5 min. […] During the test, mouse was placed in the center chamber and the entrances to the side chambers were blocked. A novel stimulus mouse in a wire enclosure and an empty wire enclosure were placed in one of the side chambers, respectively. The entrances were then opened and the activity of the test mouse was recorded. Time spent in each of the chambers and time spent sniffing the stranger mouse enclosure versus the empty enclosure were recorded.
as §2

[4] = NB001 50 mg kg^-1 IP twice a day for 14 days
[5] = NB001 50 mg kg^-1 twice a day for 14 days
[6] = blood, NB001 50 mg per kg twice per day for 14 days
[7] = blood, NB001 50 mg per kg twice per day for 14 days, mean ± SEM

SMILES: Nc1ncnc2c1ncn2CCNCCCCCO [NB001, 5-{[2-(6-amino-9H-purin-9-yl)ethyl]amino}-1-pentanol]
- body weight (mice [1]; [4]): did not affect
- weight of major organs including heart/lung, kidney and liver (mice [1]; [4]): did not affect
- histopathology in kidney and liver (mice [1]; NB001 50 mg kg^-1 IP twice a day for 14 days, H&E staining): no significant sign of histopathology
- side effects following two weeks of high dose administration (mice [1]; [5]): no significant side effects
- concentrations of various electrolytes and levels of the main toxicity-related proteins (such as aminotransferases) (mice [2]; [5]): no effect
- ALT (mice [2]; alanine aminotransferase, blood, NB001 50 mg per kg twice per day for 14 days, mean ± SEM): 18.50 ±0.96 U/L
- ALP (mice [2]; alkaline phosphatase, blood, NB001 50 mg per kg twice per day for 14 days, mean ± SEM): 62.75 ±4.48 U/L
- AST (mice [2]; aspartate aminotransferase, blood, NB001 50 mg per kg twice per day for 14 days, mean ± SEM): 32.50 ±1.55 U/L
- Hemolysis Chem (mice [2]; [6]): Normal
- Icterus Chem (mice [2]; [6]): Normal
- Lipemia Chem (mice [2]; [6]): Normal
- Albumin (mice [2]; [7]): 2.65 ± 0.13 g/dL
- Amylase (mice [2]; [7]): 586.50 ±29.02 U/L
- Anion Gap (mice [2]; [7]): 29.50 ± 2.36 mmol/L
- Calcium (mice [2]; [7]): 8.83 ± 0.20 mg/dL
- Chol (mice [2]; [7]): 100.00 ± 5.96 mg/dL
- Glucose (mice [2]; [7]): 216.50 ± 8.50 mg/dL
- Magnesium (mice [2]; [7]): 2.60 ± 0.11 mg/dL
- Na/K Ratio (mice [2]; [7]): 32.00 ±1.47
- Osmolarity (mice [2]; [7]): 321.00 ±4.00 mOs/L
- Phosphorus (mice [2]; [7]): 6.50 ± 0.24 mg/dL
- Potassium (mice [2]; [7]): 4.73 ± 0.22 mmol/L
- Sodium (mice [2]; [7]): 150.50 ± 1.50 mmol/L
- Total CO2 (mice [2]; [7]): 13.50 ± 1.04 mmol/L
- Urea Nitrogen (mice [2]; [7]): 24.50 ± 0.87 mg/dL
- level of pAkt (Akt): not affected
- stability in mouse liver microsome assay [3]: stable and resistant to degradation
- reduced social interaction in Fmr1 KO mice (WT and Fmr1 KO mice): normalized
